The values that follow come from patent US20200263184A1, “PHARMACEUTICAL COMPOSITION FOR PREVENTING AND TREATING CANCER, CONTAINING MALATE-ASPARTATE SHUTTLE INHIBITOR AND ANTICANCER DRUG AS ACTIVE INGREDIENTS” (NATIONAL CANCER CENTER, priority 2017, published 2020).

What all share (format): cell-based
Experiment [1] concerns Huh7, SNB19, UACC62, MDA-MB-231, KATO III cancer cell lines. Nature of the experiment: SRB cell proliferation, NPM and etomoxir, cancer cell lines. The settings on record: 25 μM NPM alone, 24 hours; cancer cell lines other than SNB19.
The test system of experiment [2] is A549 cells (lung cancer cell line). Nature of the experiment: Intracellular ATP level with PSA or PA, A549. The settings on record: 2, 4, 6, 8 or 10 mM, 48 hours; compared to an untreated control. Here is the method:
(§1) Specifically, A549 cells, IMR90 cells, H23 cells, H226 cells, H522 cells, and EKVX cells, which are lung cancer cell lines; and UACC62 cells, MALME-3M cells, A357 cells, M14 cells, and UACC257 cells, which are melanoma cell lines, were separately cultured. […] for 48 hours, and then intracellular ATP levels were examined using an ATP colorimetric/fluorometric analysis kit (BioVision, Milpitas, Calif., USA) in accordance with the manufacturer's protocol. The incubated cells were divided into groups of 1×10^6 cells, 100 μl of an ATP assay buffer was added thereto to lyse the cells, followed by centrifugation at 15,000×g and 4° C. for 2 minutes to separate only the supernatant. 2 μl to 50 μl of the separated supernatant was transferred to a 96-well plate, and then an ATP assay buffer was added thereto to a final volume of 50 μl per well. […] After mixing, the plate was maintained in a dark room at room temperature for 30 minutes, and then absorbance was measured at 570 nm using a microplate reader. To compare relative ATP levels among the measured values, an absorbance value for cancer cells to which gossypol and phenformin were not added was set as a reference, and relative absorbance values of the cases in which cancer cells were treated with each drug were compared, to compare ATP levels in the cells. […]

The subject of experiment [3] is UACC62 cells (melanoma cell line). Nature of the experiment: Intracellular ATP level with PSA or PA, UACC62. The settings on record: 2, 4, 6, 8 or 10 mM, 48 hours; compared to an untreated control. Here is the method: as §1
Experiment [4] concerns A549 cells (lung cancer cell line). The experiment in a line: SRB cell proliferation with PSA, A549. The settings on record: PSA 2, 4, 6, 8 or 10 mM, 48 hours. Here is the method:
(§2) Specifically, A549 cells, H522 cells, H226 cells, H23 cells, and EKVX cells, which are lung cancer cell lines; and UACC62 cells, UACC257 cells, A375 cells, SK-MEL-5 cells, and MALME-3M cells, which are melanoma cell lines, were separately cultured. The respective cells were cultured at a […] dose and inoculated in a 96-well plate at a concentration ranging from 5,000 cells/ml to 20,000 cells/ml according to the doubling time of each cell line. […] After completion of the culturing, to perform SRB analysis, a cooled 50% aqueous TCA solution was added to each well to a final concentration of 10% and the cells were incubated in a 4° C. refrigerated state for 60 minutes and then fixed. After incubation, the supernatant was removed, washed five times with tap water, and dried. A 1% acetic acid aqueous solution containing 0.4% sulforhodamine B was added to the dried sample in each well and maintained at room temperature for 10 minutes to stain the cells. After staining, the dye which was not used for staining was removed by washing with a 1% acetic acid solution, and then the plate was dried again. The dye which was used for staining was dissolved in a 10 mM Trisma base solution, and then absorbance was measured at 515 nm.
(§3) Specifically, A549 cells (lung cancer cell line), UACC62 cells (melanoma cell line), and IMR90 cells (normal control, lung fibroblasts) were separately cultured. […]

Experiment [5] has as its system IMR90 cells (normal control, lung fibroblasts). Nature of the experiment: SRB cell proliferation with PSA, IMR90. The settings on record: normal cell line, PSA 2, 4, 6, 8 or 10 mM, 48 hours.
For experiment [6], the system named is UACC62 cells (melanoma cell line). The experiment in a line: SRB cell proliferation with PSA, UACC62. The settings on record: PSA 2, 4, 6, 8 or 10 mM, 48 hours. Here is the method:
as §2, §3

Experiment [7] relates to A549 cells. The experiment in a line: Cell apoptosis (Annexin V-FITC/PI flow cytometry), A549. The settings on record: single drug alone (4 mM PSA or PA; 10 μM gossypol), 48 hours. Here is the method: (§4) First, A549 cells, UACC62 cells, and IMR90 cells, as a normal control, were cultured. The cultured cells were treated with a drug mixture of a 4 mM […] inhibitor (PSA or PA), which is an MAS inhibitor, and 10 μM gossypol or with only one of the drugs and cultured in the same manner as described above for 48 hours. The medium was removed from the cultured cells, followed by washing the cells twice with cold PBS and centrifugation at 1,400 rpm for 3 minutes, and a binding buffer was added thereto so that concentration was 1×10^6 cells/[…]. Then, a […] buffer was transferred to a 5-mL culture tube and 5 μl of each of Annexin V-FITC and propidium iodine (PI) was added thereto. Mixing was performed by slowly vortexing the tube, and then the cells were incubated in a dark room at room temperature for 15 minutes. After incubation, a binding buffer (400 μl) was added thereto and the degree of increase in cell apoptosis was examined by a flow cytometer.
Background: Flow cytometry measures light scatter and fluorescence of single cells or particles in a stream.

Experiment [8] deals with A549 cells. The experiment in a line: Mitochondrial membrane potential (TMRE), A549. The settings on record: 10 μM gossypol alone, 48 hours. Here is the method: (§5) Specifically, A549 cells, UACC62 cells, and IMR90 cells, as a normal control, were cultured. The respective cultured cells were treated with a drug mixture of 4 mM of an SLC25A11 inhibitor (PSA or PA), which is an MAS inhibitor, and 10 μM gossypol or with only one of the drugs and cultured in the same manner as described above for 48 hours, and then each cell culture solution was dispensed into chamber slides (for fluorescence microscopy) or a 6-well plate (for flow cytometry). The dispensed culture solution was treated with 100 nM tetramethylrodamine ester (TMRE) as a fluorescent probe and a reaction was allowed to occur therebetween for 20 minutes. After the reaction, the cells were washed with cooled PBS, and the fluorescence development of the cells was measured using a Zeiss LSM510 fluorescence microscope (Carl Zeiss, Oberkochen, Baden-Wurttemberg, Germany). In addition, fluorescence intensity was analyzed in a flow cytometer using a 585 nm (FL-2) channel.

For the next experiment, the system named is UACC62 cells. Nature of the experiment: Cell apoptosis (Annexin V-FITC/PI flow cytometry), UACC62. The settings on record: single drug alone (4 mM PSA or PA; 10 μM gossypol), 48 hours. Here is the method:
as §4

Experiment [9] deals with IMR90 cells (normal control). Nature of the experiment: Cell apoptosis (Annexin V-FITC/PI flow cytometry), IMR90. The settings on record: single drug alone (4 mM PSA or PA; 10 μM gossypol), 48 hours. Here is the method: as §4
The subject of another experiment is cancer cell lines. Nature of the experiment: Intracellular ATP level, MAS inhibitor and gossypol, cancer cell lines. The settings on record: 10 μM gossypol alone vs 4 mM PSA or PA alone, 48 hours. Here is the method: as §1, with “[…],” for “an absorbance value for cancer cells to which gossypol and phenformin were not added was set as a reference,”
In experiment [10] the test system is IMR90 cells (normal control). The experiment in a line: Mitochondrial membrane potential (TMRE), IMR90. The settings on record: single drug alone (4 mM PSA or PA; 10 μM gossypol), 48 hours. Here is the method:
as §5

Experiment [11] concerns EKVX, A549, HOP-62 (lung cancer) and UACC62, UACC257, A375 (melanoma) cells. Nature of the experiment: SRB cell proliferation, MAS inhibitor and gossypol, cancer cell lines. The settings on record: 48 hours.

`O=C1C=CC(=O)N1c1ccc2ccc3cccc4ccc1c2c34` [NPM, N-(1-pyrenyl)maleimide]: in experiment [1], the “effect of inhibiting cancer cell proliferation” value is “could be exhibited”.
With `O=C(O)C(=O)c1ccccc1C(=O)O` [PA, phthalonic acid], the “intracellular ATP levels” value in experiment [2] and in experiment [3] was “reduced” in each case.
For `O=C(O)CC(C(=O)O)c1ccccc1` (stereo not shown) [PSA, phenyl succinic acid], the “intracellular ATP levels” value in experiment [2] and in experiment [3] was “reduced” throughout. Further, the “level of cancer cell line proliferation” value in experiment [4] and in experiment [6] was “reduced in a manner dependent upon the concentration of added PSA” in each case. Further, the cell proliferation result in [5] is on record as “not significantly inhibited”.
Consider `Cc1cc2c(C(C)C)c(O)c(O)c(C=O)c2c(O)c1-c1c(C)cc2c(C(C)C)c(O)c(O)c(C=O)c2c1O` [gossypol], for which the cell apoptosis result in the experiment on A549 cells [7] was “insignificant extent”; in the experiment on UACC62 cells it was “insignificant extent”; in experiment [9], “no significant cell apoptosis”. Moreover, the mitochondrial membrane potential entry in the experiment with A549 cells [8] is recorded as “significant decrease”; in experiment [10], “no significant change”. For the same molecule, the “intracellular ATP production level, difference between gossypol alone and PSA or PA alone” value in the experiment on cancer cell lines is given as “no significant difference”. In addition, in experiment [11] (10 μM gossypol alone vs 25 μM NPM), the “effect of inhibiting a cell proliferation level, gossypol alone versus NPM alone” value is “more significantly exhibited”. For the same molecule, the “reduction in the cell proliferation level, gossypol alone versus PSA or PA alone” value in experiment [11] (10 μM gossypol alone vs 4 mM PSA or PA alone) is “more prominent”.
